The target in one assay is T1, 5HT-uptake (Rattus norvegicus, UniProt P31652).
T1 construct: synaptosomes were freshly isolated from areas of rats' brains
In words: biochemical. Conditions: for inhibition at 10 µM: read-out: 5HT-uptake [10 μM], % inhibition.

In a further assay the target is NA-uptake (Rattus norvegicus, UniProt Q63380). In words: biochemical. Conditions: for inhibition at 10 µM: read-out: NA-uptake [10 μM], % inhibition.
Chain of NA-uptake (Q63380 1-617): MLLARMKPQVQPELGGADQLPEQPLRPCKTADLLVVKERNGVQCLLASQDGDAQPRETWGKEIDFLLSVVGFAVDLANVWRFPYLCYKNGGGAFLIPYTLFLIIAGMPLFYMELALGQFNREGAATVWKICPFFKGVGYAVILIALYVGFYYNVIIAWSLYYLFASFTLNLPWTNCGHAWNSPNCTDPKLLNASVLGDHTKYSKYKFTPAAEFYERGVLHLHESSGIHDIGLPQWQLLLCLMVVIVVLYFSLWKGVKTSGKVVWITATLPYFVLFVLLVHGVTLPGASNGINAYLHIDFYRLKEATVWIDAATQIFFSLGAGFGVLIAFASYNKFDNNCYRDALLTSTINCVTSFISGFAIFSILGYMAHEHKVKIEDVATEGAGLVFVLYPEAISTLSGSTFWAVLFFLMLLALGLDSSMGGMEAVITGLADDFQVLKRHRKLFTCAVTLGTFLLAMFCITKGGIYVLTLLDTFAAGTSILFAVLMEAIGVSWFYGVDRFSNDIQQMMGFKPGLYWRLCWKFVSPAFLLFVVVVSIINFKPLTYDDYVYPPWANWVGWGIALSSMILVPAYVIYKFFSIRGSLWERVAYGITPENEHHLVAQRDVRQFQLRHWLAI

T1 sequence (P31652 whole entry): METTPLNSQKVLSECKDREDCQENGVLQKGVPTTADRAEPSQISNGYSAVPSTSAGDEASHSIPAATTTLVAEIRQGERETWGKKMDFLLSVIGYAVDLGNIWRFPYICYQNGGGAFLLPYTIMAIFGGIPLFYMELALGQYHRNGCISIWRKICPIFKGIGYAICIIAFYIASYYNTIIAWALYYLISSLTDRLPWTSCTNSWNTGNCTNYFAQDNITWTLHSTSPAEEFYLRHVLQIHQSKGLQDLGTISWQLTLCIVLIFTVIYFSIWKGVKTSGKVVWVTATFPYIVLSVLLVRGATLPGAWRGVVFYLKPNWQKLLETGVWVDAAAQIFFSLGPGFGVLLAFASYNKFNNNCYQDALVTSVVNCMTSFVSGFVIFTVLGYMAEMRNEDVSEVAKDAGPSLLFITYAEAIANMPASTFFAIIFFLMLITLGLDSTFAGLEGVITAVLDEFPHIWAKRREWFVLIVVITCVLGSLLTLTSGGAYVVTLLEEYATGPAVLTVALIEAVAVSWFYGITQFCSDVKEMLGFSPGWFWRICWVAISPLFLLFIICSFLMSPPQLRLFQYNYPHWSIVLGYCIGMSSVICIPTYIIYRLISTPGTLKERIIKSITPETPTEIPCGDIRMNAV

As to `COc1ccc(CNC(=O)CCC(=O)NC2CCC(Cc3ccc(Cl)cc3)(N(C)C)CC2)c(OC)c1` (centres unmarked) [Example 68, N-[4-(4-chloro-benzyl)-4-dimethylamino-cyclohexyl]-N′-(2,4-dimethoxy-benzyl)-succinamide], the inhibition (commonly the change of the read-out against control, counted positive when it falls) at 10 µM was found to be 98% at 5HT-uptake and 85% at NA-uptake.

On to `CCOC(=O)C(C)NC(=O)CCC(=O)NC1CCC(Cc2ccc(Cl)cc2)(N(C)C)CC1` (centres unmarked) [Example 7, 2-{3-[4-(4-chloro-benzyl)-4-dimethylamino-cyclohexylcarbamoyl]-propionylamino}-propanoic acid ethylester], for which the inhibition at 10 µM at 5HT-uptake came to 93%; on NA-uptake, 91%.

For `CCOP(=O)(Cc1ccc(NC(=O)CCC(=O)NC2CCC(Cc3cccc(C)c3)(N(C)C)CC2)cc1)OCC` (centres unmarked) [Example 46, (4-{3-[4-dimethylamino-4-(3-methyl-benzyl)-cyclohexylcarbamoyl]-propionylamino}-benzyl)-phosphonic acid diethylester], the inhibition at 10 µM on 5HT-uptake came to 92%; on NA-uptake it was 89%.

As to `CN(C)C1(Cc2ccc(Cl)cc2)CCC(NC(=O)CCC(=O)N2CCSCC2)CC1` (centres unmarked) [Example 13, N-[4-(4-chloro-benzyl)-4-dimethylamino-cyclohexyl]-4-oxo-4-thiomorpholin-4-yl-butyramide], the inhibition at 10 µM on 5HT-uptake was 92%; on NA-uptake, 72%.

In the case of `Cc1ccc(CC2(N(C)C)CCC(NC(=O)CCC(=O)N(C)CCc3c[nH]c4ccccc34)CC2)cc1` (centres unmarked) [Example 36, N-[4-dimethylamino-4-(4-methyl-benzyl)-cyclohexyl]-N′-[2-(1H-indol-3-yl)-ethyl]-N′-methyl-succinamide], the figures for the inhibition at 10 µM on 5HT-uptake and on NA-uptake were 96% and 93%, respectively.

With `CCC(NC(=O)CCC(=O)NC1CCC(Cc2ccc(Cl)cc2)(N(C)C)CC1)c1ccccc1` (centres unmarked) [Example 135, N-[4-(4-chloro-benzyl)-4-dimethylamino-cyclohexyl]-N′-(1-phenyl-propyl)-succinamide], the figures for the inhibition at 10 µM on 5HT-uptake and at NA-uptake were 92% and 96%, respectively.

`CN(C)C1(Cc2cccc(Cl)c2)CCC(NC(=O)CCC(=O)N2CCC3(CC2)C(=O)NCN3c2ccccc2)CC1` (centres unmarked) [Example 114, N-[4-(3-chloro-benzyl)-4-dimethylamino-cyclohexyl]-4-oxo-4-(4-oxo-1-phenyl-1,3,8-triaza-spiro[4.5]dec-8-yl)-butyramide]: the inhibition at 10 µM on 5HT-uptake is 99%; at NA-uptake it was 106%.

For the molecule `Cc1ccc(CC2(N(C)C)CCC(NC(=O)CCC(=O)N(C)CCNC(=O)C(F)(F)F)CC2)cc1` (centres unmarked) [Example 11, N-[4-dimethylamino-4-(4-methyl-benzyl)-cyclohexyl]-N′-methyl-N′-[2-(2,2,2-trifluoro-acetylamino)-ethyl]-succinamide], the inhibition at 10 µM was 92% on 5HT-uptake and 77% on NA-uptake.

On to `CN(CCc1c[nH]c2ccccc12)C(=O)CCC(=O)NC1CCC(Cc2cccc(Cl)c2)(N(C)C)CC1` (centres unmarked) [Example 53, N-[4-(3-chloro-benzyl)-4-dimethylamino-cyclohexyl]-N′-[2-(1H-indol-3-yl)-ethyl]-N′-methyl-succinamide], for which the inhibition at 10 µM at 5HT-uptake was found to be 93%; at NA-uptake, 94%.

As for `CN(C)C1(Cc2cccc(Cl)c2)CCC(NC(=O)CCC(=O)N2CC=CCC2)CC1` (centres unmarked) [Example 39, N-[4-(3-chloro-benzyl)-4-dimethylamino-cyclohexyl]-4-(3,6-dihydro-2H-pyridin-1-yl)-4-oxo-butyramide], the inhibition at 10 µM on 5HT-uptake amounted to 94%; at NA-uptake, 90%.

As for `COc1ccc2[nH]cc(CCNC(=O)CCC(=O)NC3CCC(Cc4cccc(C)c4)(N(C)C)CC3)c2c1` (centres unmarked) [Example 139, N-[4-dimethylamino-4-(3-methyl-benzyl)-cyclohexyl]-N′-(2-(5-methoxy-1H-indol-3-yl)-ethyl]-succinamide], the inhibition at 10 µM at 5HT-uptake was 93%; at NA-uptake, 95%.

Consider `COc1ccc(OC)c(CN2CCN(C(=O)CCCC(=O)NC3CCC(Cc4ccccc4)(N(C)C)CC3)CC2)c1` (centres unmarked) [Example 18, 5-[4-(2,5-dimethoxy-benzyl)-piperazin-1-yl]-5-oxo-valeric acid (4-benzyl-4-dimethylamino-cyclohexyl)-amide], for which the inhibition at 10 µM was found to be 94% on 5HT-uptake and 84% on NA-uptake.

`CN(C)C1(Cc2ccc(Cl)cc2)CCC(NC(=O)CCC(=O)NC2CCCC2)CC1` (centres unmarked) [Example 44, N-[4-(4-chloro-benzyl)-4-dimethylamino-cyclohexyl]-Nt-cyclopentyl-succinamide]: on 5HT-uptake, the “5HT-uptake [10 μM], % inhibition” value stood at 94%. In addition, on NA-uptake, the “NA-uptake [10 μM], % inhibition” value is on record as 84%.

For the molecule `Cc1cnc(C(=O)N2CCN(C(=O)CCCC(=O)NC3CCC(Cc4ccccc4)(N(C)C)CC3)CC2)cn1` (centres unmarked) [Example 41, 5-[4-(5-methyl-pyrazin-2-carbonyl)-piperazin-1-yl]-5-oxo-valeric acid (4-benzyl-4-dimethylamino-cyclohexyl)-amide], the inhibition at 10 µM on 5HT-uptake was found to be 92%; on NA-uptake, 90%.

With `Cc1ccc(CC2(N(C)C)CCC(NC(=O)CCC(=O)NC3CCCc4ccccc43)CC2)cc1` (centres unmarked) [Example 126, N-[4-dimethylamino-4-(4-methyl-benzyl)-cyclohexyl]-N′-(1,2,3,4-tetrahydro-naphthalen-1-yl)-succinamide], the inhibition at 10 µM at 5HT-uptake worked out at 93%; at NA-uptake, 84%.

In the case of `CCOC(=O)CCNC(=O)CCC(=O)NC1CCC(Cc2ccc(C)cc2)(N(C)C)CC1` (centres unmarked) [Example 9, 3-{3-[4-dimethylamino-4-(4-methyl-benzyl)-cyclohexylcarbamoyl]-propionylamino}-propanoic acid ethylester], the inhibition at 10 µM on 5HT-uptake was 93%; at NA-uptake it was 91%.

As for `Cc1ccccc1CNC(=O)CCC(=O)NC1CCC(Cc2ccc(Cl)cc2)(N(C)C)CC1` (centres unmarked) [Example 50, N-[4-(4-chloro-benzyl)-4-dimethylamino-cyclohexyl]-N′-(2-methyl-benzyl)-succinamide], the figures for the inhibition at 10 µM at 5HT-uptake and at NA-uptake were 92% and 89%, respectively.

Regarding `COc1cccc(N2CCN(C(=O)CCC(=O)NC3CCC(Cc4cccc(C)c4)(N(C)C)CC3)CC2)c1` (centres unmarked) [Example 48, N-[4-dimethylamino-4-(3-methyl-benzyl)-cyclohexyl]-4-[4-(3-methoxy-phenyl)-piperazin-1-yl]-4-oxo-butyramide], the figures for the inhibition at 10 µM at 5HT-uptake and at NA-uptake were 94% and 97%, respectively.

Turning to `COc1ccc(CN2CCN(C(=O)CCC(=O)NC3CCC(Cc4cccc(C)c4)(N(C)C)CC3)CC2)cc1F` (centres unmarked) [Example 35, N-[4-dimethylamino-4-(3-methyl-benzyl)-cyclohexyl]-4-[4-(3-fluoro-4-methoxy-benzyl)-piperazin-1-yl]-4-oxo-butyramide], the inhibition at 10 µM at 5HT-uptake is 94%; at NA-uptake, 95%.
